Test results taken from publication PMC3702509, “Label Free Fragment Screening Using Surface Plasmon Resonance as a Tool for Fragment Finding – Analyzing Parkin, a Difficult CNS Target” (PLoS ONE, 2013).

Assays:
[1] = molecular target: T1, FL-FLAG-Parkin 56°C (thermal treated) (Homo sapiens, UniProt O60260); assay: SPR kinetics/affinity on thermal treated FL-FLAG Parkin captured by anti-FLAG antibody; type: binding
T1 construct: the entire coding region (residues 1–465) from NM_004562.1 was cloned into pFastBac; made in house; host or cells: Sf9 or Sf21 insect cells (baculovirus)
T1 sequence (O60260 1-465): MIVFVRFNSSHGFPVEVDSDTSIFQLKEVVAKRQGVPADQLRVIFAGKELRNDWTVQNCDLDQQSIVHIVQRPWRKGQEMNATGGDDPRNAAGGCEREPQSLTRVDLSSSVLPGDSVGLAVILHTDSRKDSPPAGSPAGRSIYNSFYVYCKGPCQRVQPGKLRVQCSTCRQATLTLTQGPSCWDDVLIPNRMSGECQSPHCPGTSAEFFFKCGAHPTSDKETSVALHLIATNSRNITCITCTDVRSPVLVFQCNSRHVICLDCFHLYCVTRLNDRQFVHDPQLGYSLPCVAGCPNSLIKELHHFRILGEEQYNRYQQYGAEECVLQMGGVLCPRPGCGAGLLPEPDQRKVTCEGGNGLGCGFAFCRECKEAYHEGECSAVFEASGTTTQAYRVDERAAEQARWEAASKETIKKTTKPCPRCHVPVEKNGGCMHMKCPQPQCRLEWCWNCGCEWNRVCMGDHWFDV
Experimental: Kinetics and Affinity measurements were performed on a GE Healthcare Biacore T100 or T200 instrument. Anti-FLAG antibody M2 was immobilized on a CM5 sensor chip using standard amine coupling procedure at a concentration of 100 μg/ml to a level of 10000 response units (RU). […] The running buffer for both methods was 10 mM HEPES pH 7.4, 150 mM NaCl, 0.005% Tween-20, 4 mM reducing agent. […] Flow cell 2 contained antibody only to control for non-specific binding of fragments to the antibody, and flow cells 3 and 4 contained antibody and captured Parkin. Untagged Parkin domain R0RBR was immobilized by amine coupling at a concentration of 100 μg/ml in 10 mM acetic acid pH 5.0 using the same running buffer as for anti-FLAG antibody immobilization. The surface was then washed with 10 mM HEPES pH 7.4, 150 mM NaCl, 0.005% Tween-20, 4 mM reducing agent for at least one hour.
(§1) The flow rate was 30μl/min. The time-dependent binding curves were monitored simultaneously. The surfaces were then regenerated after each binding experiment by washing the surfaces with an injection of running buffer. Kinetics and affinity experiments were repeated at least twice at two different test occasions.
Kinetic and affinity data were solvent corrected (fragments only), reference subtracted and blank subtracted using the Biacore T200 evaluation software V.1. Kinetic constants were determined by curve fitting using a 1∶1 binding model. Association and dissociation curves were fitted globally or locally. The rate of complex formation (1∶1 interaction) during fragment injection was calculated according to the equation (2): [drawing 2] […] The dissociation phase kd was measured using the rate of decline in RU after the injection stop, when free running buffer is flowing over the surface. Data were simultaneously fitted by the software and the dissociation constant KD calculated using equation (3). […] (3) Ligand efficiency (LE, Δg) was calculated as the binding energy of ligand per atom (equation 4) [drawing 4] […]
The dissociation half-life (t1/2) was calculated by equation (5). […]

FL-FLAG Parkin [2] = molecular target: T2, FL-FLAG Parkin (Homo sapiens, UniProt O60260); assay: STD NMR binding to FL-FLAG-Parkin; details: 4 µM FL Parkin, 0.5 mM DTT, 0.25 mM compound Z, signal at 2.6 ppm
T2 construct: the entire coding region (residues 1–465) from NM_004562.1 was cloned into pFastBac; made in house; host or cells: Sf9 or Sf21 insect cells (baculovirus)
T2 sequence (O60260 1-465): T1 sequence (O60260 1-465)
Experimental: All NMR experiments were conducted at 15°C on a Bruker Avance 700 MHz spectrometer equipped with a 5 mm TCI cryo-probe. 3 mm NMR tubes were used for reducing the protein consumption. […] The compound concentration was 0.25 mM. […] The Mnova 7.0 (Mestrelab Research) was used in data analysis.

[3] = molecular target: T3, FL-FLAG-Parkin RT (non-thermal treated) (Homo sapiens, UniProt O60260); assay: SPR kinetics/affinity on non-thermal treated FL-FLAG Parkin captured by anti-FLAG antibody; type: binding; details: for direct binding of reducing agent by SPR: non-thermal treated Parkin
T3 construct: the entire coding region (residues 1–465) from NM_004562.1 was cloned into pFastBac; made in house; host or cells: Sf9 or Sf21 insect cells (baculovirus)
T3 sequence (O60260 1-465): T1 sequence (O60260 1-465)
Experimental: Kinetics and Affinity measurements were performed on a GE Healthcare Biacore T100 or T200 instrument. Anti-FLAG antibody M2 was immobilized on a CM5 sensor chip using standard amine coupling procedure at a concentration of 100 μg/ml to a level of 10000 response units (RU). […] Flow cell 2 contained antibody only to control for non-specific binding of fragments to the antibody, and flow cells 3 and 4 contained antibody and captured Parkin. Untagged Parkin domain R0RBR was immobilized by amine coupling at a concentration of 100 μg/ml in 10 mM acetic acid pH 5.0 using the same running buffer as for anti-FLAG antibody immobilization. […]
as §1
Kinetic and affinity data were solvent corrected (fragments only), reference subtracted and blank subtracted using the Biacore T200 evaluation software V.1. Kinetic constants were determined by curve fitting using a 1∶1 binding model. Association and dissociation curves were fitted globally or locally. The rate of complex formation (1∶1 interaction) during fragment injection was calculated according to the equation (2): [drawing 2] (2) where R is the SPR signal in response units (RU), C is the concentration of analyte, Rmax is the maximum analyte binding capacity in RU, dR/dt is the rate of SPR signal change. To determine the association constant ka between fragment and protein, the early binding phase was used. The dissociation phase kd was measured using the rate of decline in RU after the injection stop, when free running buffer is flowing over the surface. Data were simultaneously fitted by the software and the dissociation constant KD calculated using equation (3). [drawing 3] (3) Ligand efficiency (LE, Δg) was calculated as the binding energy of ligand per atom (equation 4) [drawing 4] (4) where Nh is the number of heavy (i.e., non-hydrogen) atoms in the ligand.
The dissociation half-life (t1/2) was calculated by equation (5). [drawing 5] (5)

FL-FLAG Parkin [4] = molecular target: T2, FL-FLAG Parkin; assay: S5a ubiquitination HTRF (TR-FRET) assay; type: biochemical; details: Parkin heated at 56°C in presence of reducing agent; DTT at optimal 5–10 mM
Experimental: FL FLAG-Parkin (35 μM stock) was thermally treated by incubating at 56°C for 30 min. The thermally treated FL FLAG-Parkin stock was stored at −80 C. 5 μl of thermally treated or non-treated FLAG-Parkin diluted in assay buffer was added to wells of a 384-well non-binding plate. […] The reaction was allowed to proceed for 120 min at 30°C. 10 μl of stop-detection mix was added to a final concentration of 75 nM streptavidin XL665 conjugate, 12 mM EDTA in buffer containing 100 mM Na2HPO4 pH 7.0, 300 mM KF, and 0.1% BSA. The 20 μl reaction mixture was incubated for 60 min at room temperature. HTRF read using a LJL Analyst plate reader (Molecular Devices) at excitation 320 nm and emission 665 nm & 615 nm.

R0RBR Domain RT = molecular target: T4, R0RBR Domain RT (Homo sapiens, UniProt O60260); assay: SPR kinetics/affinity on amine-coupled Parkin R0RBR domain; type: binding; details: read-out: Affinities KD of protein ligands
T4 construct: DNA encoding residues 141–465 of Parkin (NM_004562.1) were cloned into the Champion pET SUMO vector; SUMO (His-SUMO of the Champion pET SUMO vector) (N, cleaved yes); made in house; host or cells: E. coli BL21 DE3
T4 sequence (O60260 141-465): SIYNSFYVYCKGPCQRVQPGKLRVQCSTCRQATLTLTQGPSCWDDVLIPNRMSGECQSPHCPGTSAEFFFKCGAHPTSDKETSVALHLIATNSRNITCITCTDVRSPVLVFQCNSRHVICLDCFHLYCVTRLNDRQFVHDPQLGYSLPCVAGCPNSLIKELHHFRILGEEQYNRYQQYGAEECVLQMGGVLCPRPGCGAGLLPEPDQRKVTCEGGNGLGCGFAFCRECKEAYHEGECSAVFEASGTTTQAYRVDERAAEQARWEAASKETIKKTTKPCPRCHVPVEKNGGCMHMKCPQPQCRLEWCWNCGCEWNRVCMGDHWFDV
Experimental: Kinetics and Affinity measurements were performed on a GE Healthcare Biacore T100 or T200 instrument. Anti-FLAG antibody M2 was immobilized on a CM5 sensor chip using standard amine coupling procedure at a concentration of 100 μg/ml to a level of 10000 response units (RU). Monomeric non-thermal treated FL-Parkin or thermal treated FL-Parkin was captured in 10 mM acetic acid pH 4.5 to levels of up to 16000 RU. The running buffer for both methods was 10 mM HEPES pH 7.4, 150 mM NaCl, 0.005% Tween-20, 4 mM reducing agent. Typically, the 4 flow cells of the sensor chips were used as follows: flow cell 1 served as a reference and was activated and deactivated. […]
To test binding of reducing agents in the absence of small molecules, the reducing agents were diluted and injected in buffer without reducing agents for 180 sec and a dissociation phase of 600 sec. […] The time-dependent binding curves were monitored simultaneously. […]
Kinetic and affinity data were solvent corrected (fragments only), reference subtracted and blank subtracted using the Biacore T200 evaluation software V.1. Kinetic constants were determined by curve fitting using a 1∶1 binding model. […] The rate of complex formation (1∶1 interaction) during fragment injection was calculated according to the equation (2): [drawing 2] […] Data were simultaneously fitted by the software and the dissociation constant KD calculated using equation (3). […]

[5] = SPR, 50 mM HEPES pH 8.8, 0.005% Tween-20, 0.01% PF-127, no other reducing agent

Row | Molecule | direct binding of reducing agent by SPR [1] | DTT binding in STD spectrum (FL-FLAG Parkin [2]) | Kd [3, 5] [µM] | affinity (KD) of reducing agent [3, 5] | Rmax ([3]; SPR, same run as the KD of DTT) [RU] | binding activity % Rmax ([3]; SPR, same run as the KD of DTT) [% Rmax] | dissociation half-life ([3]; calculated from the dissociation rate kd) [min] | direct binding of reducing agent by SPR [3] | improvement of Parkin S5a ubiquitination activity (FL-FLAG Parkin [4]) | dissociation at a fast rate (kd), time ([3]; SPR, protein ligand) [s] | Kd (R0RBR Domain RT) [µM]
1 | O[C@@H](CS)[C@@H](O)CS (racemic) [DTT, Dithiothreitol] | showed binding | binding was evident | 1.4 | low micro-molar affinity | 34 | 47 | 28.95 | showed binding | – | – | –
2 | OCCS [BME, β-mercaptoethanol] | did not exhibit any binding | – | – | – | – | – | – | did not exhibit any binding | up to 2.5 fold | – | –
3 | O=C(O)CCP(CCC(=O)O)CCC(=O)O [TCEP] | did not exhibit any binding | – | – | – | – | – | – | did not exhibit any binding | up to 2.5 fold | – | –
4 | UbcH7: Ubiquitin conjugating enzyme E2, non-tagged, purified in house | – | – | – | – | – | – | – | – | – | 30 | 7.1
